Reference: the NIST ThermoML archive (doi:10.1021/je8004112)

Key:
[1] = Ring tensiometer
[2] = xn = mol fraction of the nth substance listed; details: Ring tensiometer

C1CCCCC1 [cyclohexane]
[1]
Details	surface tension liquid-gas [mN/m]
293.15 K	25.06
298.15 K	24.45
303.15 K	23.87
308.15 K	23.21
313.15 K	22.71
318.15 K	22.05
323.15 K	21.45

CCCCCCC [heptane] + OC1CCCCC1
[2], x1 = 1
Details	surface tension liquid-gas [mN/m]
293.15 K	20.05
298.15 K	19.54
303.15 K	19.1
308.15 K	18.58
313.15 K	18.08
318.15 K	17.6
323.15 K	17.06

CCCCCCCCC [nonane] + OC1CCCCC1
[2], x1 = 1
Details	surface tension liquid-gas [mN/m]
293.15 K	23.04
298.15 K	22.49
303.15 K	22.04
308.15 K	21.49
313.15 K	20.94
318.15 K	20.47
323.15 K	19.98

OC1CCCCC1 [cyclohexanol] + CCCCCC
surface tension liquid-gas [mN/m], [2]
Details	x2 = 0	x2 = 0.007	x2 = 0.009	x2 = 0.012	x2 = 0.021	x2 = 0.03	x2 = 0.042	x2 = 0.075
293.15 K	33.15	31.87	31.64	31.5	31.11	30.5	30	28.85
298.15 K	32.74	31.5	31.31	31.08	30.71	30.07	29.59	28.42
303.15 K	32.35	31.13	30.96	30.7	30.33	29.67	29.15	27.96
308.15 K	31.91	30.77	30.64	30.26	29.96	29.26	28.74	27.5
313.15 K	31.58	30.42	30.31	29.88	29.55	28.85	28.33	27.06

CCCCCC [hexane] + OC1CCCCC1
[2], x1 = 1
Details	surface tension liquid-gas [mN/m]
293.15 K	18.56
298.15 K	18.03
303.15 K	17.44
308.15 K	16.92
313.15 K	16.38

OC1CCCCC1 [cyclohexanol] + C1CCCCC1
surface tension liquid-gas [mN/m], [2]
Details	x2 = 0	x2 = 0.005	x2 = 0.009	x2 = 0.013	x2 = 0.023	x2 = 0.031	x2 = 0.044	x2 = 0.07
293.15 K	33.15	31.44	30.93	30.73	30.42	30.26	30.12	29.62
298.15 K	32.74	31	30.54	30.32	29.99	29.8	29.62	29.15
303.15 K	32.35	30.55	30.17	29.88	29.57	29.38	29.16	28.65
308.15 K	31.91	30.12	29.77	29.49	29.15	28.93	28.65	28.18
313.15 K	31.58	29.73	29.4	29.06	28.76	28.48	28.26	27.75
318.15 K	31.13	29.26	29	28.67	28.34	28.07	27.78	27.27
323.15 K	30.78	28.88	28.63	28.3	27.91	27.66	27.35	26.82

CCCCCCCCCCCC [dodecane] + OC1CCCCC1
[2], x1 = 1
Details	surface tension liquid-gas [mN/m]
293.15 K	24.28
298.15 K	23.84
303.15 K	23.38
308.15 K	22.98
313.15 K	22.56
318.15 K	22.14
323.15 K	21.71

C1CCCCC1 [cyclohexane] + OC1CCCCC1
[2], x1 = 1
Details	surface tension liquid-gas [mN/m]
293.15 K	25.06
298.15 K	24.45
303.15 K	23.87
308.15 K	23.21
313.15 K	22.71
318.15 K	22.05
323.15 K	21.45

OC1CCCCC1 [cyclohexanol] + CCCCCCCCC
surface tension liquid-gas [mN/m], [2]
Details	x2 = 0	x2 = 0.003	x2 = 0.006	x2 = 0.008	x2 = 0.012	x2 = 0.022	x2 = 0.041	x2 = 0.06
293.15 K	33.15	32.91	32.7	32.65	32.24	31.79	30.67	29.88
298.15 K	32.74	32.51	32.3	32.22	31.85	31.44	30.3	29.48
303.15 K	32.35	32.11	31.84	31.78	31.49	31.09	29.91	29.11
308.15 K	31.91	31.72	31.44	31.35	31.09	30.72	29.52	28.72
313.15 K	31.58	31.36	31.08	30.94	30.75	30.38	29.17	28.37
318.15 K	31.13	30.99	30.69	30.52	30.41	29.99	28.8	27.98
323.15 K	30.78	30.54	30.3	30.07	30.02	29.62	28.41	27.56

CCCCCC [hexane]
[1]
Details	surface tension liquid-gas [mN/m]
293.15 K	18.56
298.15 K	18.03
303.15 K	17.44
308.15 K	16.92
313.15 K	16.38

CCCCCCCCCCCC [dodecane]
[1]
Details	surface tension liquid-gas [mN/m]
293.15 K	24.28
298.15 K	23.84
303.15 K	23.38
308.15 K	22.98
313.15 K	22.56
318.15 K	22.14
323.15 K	21.71

OC1CCCCC1 [cyclohexanol] + CCCCCCC
surface tension liquid-gas [mN/m], [2]
Details	x2 = 0	x2 = 0.011	x2 = 0.014	x2 = 0.02	x2 = 0.025	x2 = 0.033	x2 = 0.037	x2 = 0.061
293.15 K	33.15	32.84	32.69	32.56	31.8	31.53	31.38	29.87
298.15 K	32.74	32.47	32.29	32.2	31.48	31.17	31.01	29.54
303.15 K	32.35	32.11	31.92	31.8	31.08	30.82	30.56	29.2
308.15 K	31.91	31.78	31.55	31.39	30.74	30.44	30.14	28.83
313.15 K	31.58	31.43	31.23	31.01	30.41	30.1	29.77	28.54
318.15 K	31.13	31.07	30.85	30.57	30.07	29.76	29.39	28.23
323.15 K	30.78	30.7	30.45	30.16	29.7	29.43	28.99	27.87

OC1CCCCC1 [cyclohexanol] + CCCCCCCCCCCC
surface tension liquid-gas [mN/m], [2]
Details	x2 = 0	x2 = 0.006	x2 = 0.009	x2 = 0.011	x2 = 0.022	x2 = 0.031	x2 = 0.046	x2 = 0.075
293.15 K	33.15	31.7	31.11	30.68	30.22	29.81	29.14	27.16
298.15 K	32.74	31.23	30.71	30.32	29.85	29.37	28.74	26.8
303.15 K	32.35	30.78	30.28	29.99	29.46	28.87	28.35	26.47
308.15 K	31.91	30.35	29.88	29.61	29.08	28.44	27.98	26.1
313.15 K	31.58	29.92	29.49	29.25	28.72	28.01	27.58	25.76
318.15 K	31.13	29.49	29.07	28.88	28.35	27.57	27.21	25.44
323.15 K	30.78	29	28.69	28.5	27.99	27.13	26.83	25.09
